The record followed here is ChEMBL document CHEMBL1148033, “Four new C16 1,2-dioxene-polyketides from the sponge Plakortis aff. simplex” (J Nat Prod, 1993).

This assay deals with P388. As to the kind of experiment: Cytotoxicity against mouse P388 cells. Format: functional, cell-based.

Compound `CCC/C=C/C=C/CCC[C@]1(OC)C=C[C@@H](CC(=O)OC)OO1` gave an IC50 of under 0.1 µg/mL.

For the compound `CCCC1C=CC(CCC[C@]2(OC)C=C[C@@H](CC(=O)OC)OO2)OO1` (some centres not stated), the IC50 was under 0.1 µg/mL.

One may read the IC50 as the concentration that gives 50% inhibition.
